# “Also recorded” adds a separate entry of the source.
# Key:
# PC#/PSC27 cells = assay: Subcutaneous grafts of PC#/PSC27 cells treated with systemic RAPA and MIT; type: in vivo; details: RAPA used with MIT
# PC3 cells [1] = assay: In vivo chemoresistance study: subrenal capsule xenografts treated with three cycles of MIT; set-up: species or system mouse
# Method: All animal studies were performed in accordance with protocols approved by the Institutional Animal Care and Use Committee (IACUC) of Fred Hutchinson Cancer Research Center, and were carried out in accordance with the NIH Guide for laboratory animals. Mouse care/welfare and veterinary oversight were provided by the center animal care. ICR SCID mice (Taconic, Inc.) at an age of approximately 6 weeks (25 g body weight) were used. Rat tail collagen (high concentration, type I) was prepared before the ice-cold collagen solution was neutralized and adjusted to the proper osmolarity by adding a mixture of NaOH and ×10 PBS. To prepare tissue recombinants, fibroblasts (PSC27 strain) and epithelial cells (PC3, BPH1 or MDA-MB-231) were mixed at a ratio of 1:1, with each recombinant comprised of 250,000 cells of each line. After polymerization, the cell/collagen mixture was overlaid with growth medium and incubated at 37° C. for 1 hour before implantation.
# Xenografting was performed under isoflurane anesthesia. A pocket beneath the back skin was formed using surgical scissors, with an oblique incision (<1 cm) made on the capsule surface parallel and adjacent to the long axis of each kidney. Cells were injected under the capsule with a blunt 25-gauge needle and a glass Hamilton syringe via a transrenal injection, forming a starting tumor with a volume of 1 to 2 mm^3. The kidney was returned to the retroperitoneal space and the skin was closed with surgical staples. The growth of xenografts was assessed at weekly intervals using ultrasound instruments. Animals were sacrificed at 2-8 weeks post transplantation, based on the tumor burden and pathological progression of tested animals. Upon dissection, tumor volume (V) was measured and calculated according to the tumor length (1) and width (w) by the following formula: V=(π/6)×((l+w)/2)^3 (Anand et al., Nat. Genet 31:301-305, 2002). Tumors were snap-frozen or processed conventionally for formalin fixation. Resulting sections were used for hematoxylin/eosin staining, and immunostaining for selected gene expression markers.
# For chemoresistance studies, ICR SCID mice received subrenal capsule xenografts by implantation according to the procedure described above. After surgery, mice were given standard laboratory diets and water ad libitum for 2 weeks, to allow tumor uptake and growth initiation. Starting from the 3rd week (when tumor sizes reached from about 4 to about 8 mm in diameter), mice received Mitoxantrone at a dose of 0.2 mg/kg by i.p. injection, or vehicle control, on day 1 of week 3, week 5, and week 7 (Alderton et al., Cancer Res. 52:194-201, 1992). Between 8 and 12 mice were randomly assigned to each study arm. A total regimen of 3 2-week cycles was administered. After the final treatment cycle the mice were sacrificed, kidneys were removed for tumor measurement and histological analysis. The cumulative Mitoxantrone dose received per mouse was 0.6 mg/kg. Each experimental arm comprised 5-8 mice per treatment cohort.
# PC3 cells [2] = assay: Acute in vivo response to MIT: cleaved caspase 3 IHC in xenografts; set-up: species or system mouse; details: 24 hours after MIT
# Method: For assessments of the acute effects of chemotherapy, mice harboring xenografts of PC3 cells combined with PSC27 fibroblasts were treated with Mitoxantrone 0.2 mg/kg by i.p. injection, or vehicle control. Xenografts were collected 24 hour after treatment and tissues were processed for IHC. Apoptosis was assessed by staining with anti-caspase 3 antibody (cleaved, BioCare Medical). On adjacent sections, immunostaining with anti-γH2AX (Upstate) was performed to quantitate cells with DNA-damage.
# Wnt16b = assay: Systemic effect of MIT on Wnt16b expression in mouse organs (Western immunoblot); type: in vivo; details: mice, three MIT treatments over eight weeks
# Method: To determine the systemic effects of MIT treatment on Wnt16b expression, parallel experiments involved administering MIT or vehicle as per the treatment schema above, to cohorts of mice (n=6) without xenografts. At the completion of the 8-week treatment regimen, mice were euthanized and various tissues were rapidly resected and snap frozen or fixed in formalin. Following protein isolations, Western immunoblot analysis was performed for Wnt16b expression, as described above.
# [3] = tested on: primary prostate fibroblasts (PSC27 cells)
# Method: After treatment, the cells were rinsed 3 times with PBS and left to recover for 3 days in PSC medium.
# Cells growing on coverslips were rinsed, subjected to fixation in 4% paraformaldehyde and permeabilization with 0.1% Triton-X100 prior to immunostaining Primary mouse monoclonal anti-phospho-Histone H2A.X (Ser139) (clone JBW301) and secondary antibody Alexa Fluor® 488 (or 594)-conjugated F(ab′)2 goat anti-mouse IgG were sequentially applied. Nuclei were counterstained with 2 μg/ml of 4′,6-diamidino-2-phenylindole (DAPI) and coverslips were mounted onto glass slides. Upon visual examination of the DNA damage extent with immunofluorescence microscopy, DDR foci were recorded with a 4-category counting strategy, namely 4 classes: 0 foci, 1 to 3 foci, 4 to 10 foci, and >10 foci. Data from each cell line/treatment were averaged from a pool of 3 independent fields counting 100 nuclei per pool.
# WNT16B promoter = WNT16B promoter luciferase reporter assay; type: cell-based, human; details: compared to untreated cells
# From the text: The immediate 5′ upstream sequences containing putative NF-κB binding elements of the WNT16B gene were amplified from genomic DNA extracted from PSC27 cells by a DNeasy Blood and Tissue kit (QIAGEN). PCR products were cloned into pCR2.1-TOPO vector (Invitrogen) and each insert was sequenced for confirmation. PCR fragments were then double-digested and subcloned into a reporter luciferase vector pGL4.22 vector. Constructs containing one or multiple mutant NF-κB binding sites were generated from the reporter vector series by site-directed mutagenesis. The NAT11-Luc2CP-IRES-nEGFP control construct that contains large copy numbers of NF-κB binding sequences and an optimized IL-2 minimal promoter as part of NFκB-activated transgene (NAT) system was kindly provided by Dr. Hatakeyama (Hokkaido University). All constructs were confirmed by DNA sequencing in both directions. Reporter vectors were co-transfected with pRL-TK vector for transfection efficiency controls and internal normalization for gene expression measurements. Cells were either treated with 20 ng/ml TNF-α for 90 min, exposed to 10 Gy γ-irradiation or 1 μM Mitoxantrone for 1 day. […] Luciferase activity was measured using the Luciferase Assay System and normalized luciferase activities were calculated as light units normalized to renilla luciferase activity present in each specimen.
# prostate cancer cells [4] = assay: Proliferation of prostate cancer cells in fibroblast conditioned medium; type: cell-based, human; details: cell numbers 72 hours after treatment
# Method: The cultures were incubated for 3 days after which cells were detached with trypsin and the total cell number was determined by direct counting with hemacytometer. The PSC27/BPH1-GFP proportion was determined on a FACScan using GFP fluorescence as a marker for BPH1-GFP cells. […] The supernatant was harvested, filtered, concentrated and either stored frozen at −80° C. or applied immediately. BPH1-GFP, PC3 and other cell lines were seeded in conditioned medium or fresh DMEM+0.5% FBS, and grown for specific time periods and the total number of cells was determined by direct counting. All assays were performed at least three times and reported as mean values. Assays of cell proliferation were performed with the CellTiter96® AQueous One Solution Cell Proliferation Assay (MTS) with signals captured using a 96-well plate reader or by direct counting using a hemacytometer. […] Migrating or invading cells in the bottom chambers were stained and plate absorbance was recorded at 485/520 nm emission. Each assay was performed in triplicate and measured at 24 hour time points over 3 days and presented as the average absorbance of migrating cells and invading cells, with human HeLA cervical cancer cell line (ATCC) used as a reference positive control. […]
# prostate cancer cells [5] = assay: Chemoresistance (viability) assay with MIT in fibroblast conditioned medium; type: cell-based, human
# Method: Chemoresistance assays were performed using epithelial cells cultured with either DMEM and low serum (0.5% FCS) (abbreviated as “DMEM”), or conditioned medium (CM) generated from PSC27, […] or OVF28901 cells expressing vector controls, WNT16B, or siRNAs. […] Cell viability was then assayed, and the percentage of viable cells was calculated by comparing each experiment to vehicle-treated cells. Each assay was repeated a minimum of 3 times with results reported as mean±s.e.m. For chemoresistance assays, various neoplastic epithelial cells were cultured with either DMEM of low serum (0.5% FBS) only (abbreviated as “DMEM”), or CM generated from PSC27, HBF1023 or OVF28901 in various states (e.g., WNT16B overexpression, WNT16B knockdown, irradiated). […] Cell viability was assayed by MTS or direct counting with trypan blue, and the percentage of viable cells was calculated by normalizing absorbance of each experiment to untreated cells. To assess the influence of WNT16B across a range of MIT concentrations, a series of drug concentrations were applied bracketing the IC50 dose, with percent survival plotted against MIT dose at a 3-day time point. […] Luciferase assays were performed using a Dual-Luciferase Reporter Assay kit, and fold induction for each cell line was calculated as normalized relative light units of TOPFLASH divided by those of FOPFLASH. […]
# epithelial cells = assay: EMT-associated gene/protein expression in epithelial cells exposed to WNT16B conditioned medium; type: cell-based, human; details: epithelial cells in WNT16B fibroblast CM
# prostate cancer cells [6] = assay: Trans-well invasion of prostate cancer cells in fibroblast conditioned medium; type: cell-based, human; details: 24 h of treatment
# Method: All assays were performed at least three times and reported as mean values. Assays of cell proliferation were performed with the CellTiter96® AQueous One Solution Cell Proliferation Assay (MTS) with signals captured using a 96-well plate reader or by direct counting using a hemacytometer. For trans-well migration and invasion assays, serum-starved cells in serum-free medium were added to the top chambers of Cultrex 24-well Cell Migration Assay plates (8 μm size) coated with or without basement membrane extract (BM) prepared as 0.5× of stock solution. CM from fibroblasts or regular epithelial media containing 10% fetal calf serum (FCS) were added to the bottom chambers. Migrating or invading cells in the bottom chambers were stained and plate absorbance was recorded at 485/520 nm emission. Each assay was performed in triplicate and measured at 24 hour time points over 3 days and presented as the average absorbance of migrating cells and invading cells, with human HeLA cervical cancer cell line (ATCC) used as a reference positive control. […] Luciferase assays were performed using a Dual-Luciferase Reporter Assay kit, and fold induction for each cell line was calculated as normalized relative light units of TOPFLASH divided by those of FOPFLASH. […]
# PC3 cells [7] = assay: Caspase 3/7 apoptosis assay of PC3 cells exposed to MIT; type: cell-based, human; details: 24 hour of MIT exposure (IC50)
# From the text: For apoptosis assays, 0.2×10^6 PC3 cells were dispensed into 6-well culture plates and co-cultured with media conditioned from PSC27 sublines. […] For the morphological analysis, bright field pictures were taken for PC3 cells with inverted phase-contrast microscopy.
compound,measurement,setting,value
"CO[C@H]1C[C@@H]2CC[C@@H](C)[C@@](O)(O2)C(=O)C(=O)N2CCCC[C@H]2C(=O)O[C@H]([C@H](C)C[C@@H]2CC[C@@H](O)[C@H](OC)C2)CC(=O)[C@H](C)/C=C(\C)[C@@H](O)[C@@H](OC)C(=O)[C@H](C)C[C@H](C)/C=C/C=C/C=C/1C [RAPA, Rapamycin]",reduction in tumor volumes,PC#/PSC27 cells,approximately 60%
"O=C1c2c(O)ccc(O)c2C(=O)c2c(NCCNCCO)ccc(NCCNCCO)c21 [MIT, mitoxantrone]","tumor volumes, MIT vs no MIT","PC3 cells [1]; BPH-1 or PC3 plus PSC27^WNT16B or PSC27^C fibroblasts, three cycles of MIT",significantly reduced
same,tumor volume after MIT,PC3 cells [1]; PC3 + PSC27^C+shRNA^C grafts,20 mm^3
same,tumor volume after MIT,PC3 cells [1]; PC3+PSC27-RAD grafts (300 mm^3 without MIT),55 mm^3
same,tumor volume after MIT,PC3 cells [1]; PC3+PSC27^C grafts,13 mm^3
same,tumor volume after MIT,PC3 cells [1]; PC3+PSC27^WNT16B grafts,78 mm^3
same,"tumor size, MIT-treated vs untreated mice",PC3 cells [1]; tumor cells with unirradiated PSC27 fibroblasts (PSC27^C),substantially smaller
same,apoptotic cells (cleaved caspase 3 IHC),PC3 cells [2]; PC3+PSC27^C grafts,34%
same,apoptotic cells (cleaved caspase 3 IHC),PC3 cells [2]; PC3+PSC27^WNT16B tumors,14%
same,"expression of WNT16B protein in prostates, breasts and ovaries",Wnt16b,induced
same,number of γ-H2AX foci,[3],substantially increased
OO [hydrogen peroxide],number of γ-H2AX foci,[3],substantially increased
bleomycin,number of γ-H2AX foci,[3],substantially increased
TNF-α,WNT16B reporter activity,WNT16B promoter,induced
Oc1nc(-c2ccc(C(F)(F)F)cc2)nc2c1CSCC2 [XAV939],proliferative effect of the PSC27-RAD DDSP (full DDSP CM),prostate cancer cells [4],markedly attenuated; also recorded: attenuates
same,proliferative response induced by WNT16B (PSC27^WNT16B CM),prostate cancer cells [4],completely suppressed; also recorded: suppresses
same,effects of PSC27-RAD-conditioned medium on promoting tumor cell survival,prostate cancer cells [5],attenuated
same,WNT16B-induced EMT-associated gene expression,epithelial cells,blocked
same,invasive effect of the PSC27-RAD DDSP (full DDSP),prostate cancer cells [6],markedly attenuated; also recorded: attenuates
same,invasive response induced by WNT16B,prostate cancer cells [6],completely suppressed; also recorded: suppresses
same,attenuation of MIT apoptotic response by PSC27^WNT16B-conditioned medium,PC3 cells [7],blocked

# Source: patent US9759725B2, “Treatment-induced damage to the tumor micro-environment promotes cancer therapy resistance through extracellular proteins” (Fred Hutchinson Cancer Research Center, priority 2012, dated 2017)
